According to the supplement of paper PMC9763283:
± gives the standard deviation of the averaged measurements.

Assays:
Assay in all cases: area under growth-rate inhibition curve (AUC GRI) (dimensionless (GR-based AUC)); higher = less growth inhibition
Settings in all cases: exposure time: 72 h; concentrations: 0.1, 1, 10 uM
[1] = tested on: SKBR3-P
Procedure, shortened: (§1)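 Six breast cancer cell line models were used: two triple-negative lines, plus parental HER2+ lines and HER2+ lines resistant to a two-drug combination, each plated at an optimised log-phase density and treated with compound at 0.1, 1 or 10 µM for 72 h. After fixation in 4% paraformaldehyde, nuclei were stained with Hoechst 33342 or DAPI, imaged and counted. Growth was corrected using Day 0 plates, untreated Day 3 plates and DMSO controls, with 2 biological replicates. These corrected counts gave the area under the growth-rate inhibition curve.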

[2] = tested on: MDA-MB-231
Procedure, shortened: as §1

[3] = tested on: BT474-LTR
Procedure, shortened: as §1

[4] = tested on: MDA-MB-468
Procedure, shortened: as §1

[5] = tested on: SKBR3-LTR
Procedure, shortened: as §1

[6] = tested on: BT474-P
Procedure, shortened: as §1

SMILES | area under growth-rate inhibition curve [1] | area under growth-rate inhibition curve [2] | area under growth-rate inhibition curve [3] | area under growth-rate inhibition curve [4] | area under growth-rate inhibition curve [5] | area under growth-rate inhibition curve [6]
Cc1cc(C(C)(C)C)c(O)c(C)c1CC1=NCCN1.[Cl-].[H+] [Oxymetazoline hydrochloride] | 1.02 | 1.01 | 1.09 | 1.04 | 1.06 | 1.05
CCCCC1=NC2(CCCC2)C(=O)N1Cc1ccc(-c2ccccc2-c2nn[nH]n2)cc1 [Irbesartan] | 1.03 ± 0.019 | 1.042 ± 0.002 | 1.063 ± 0.0091 | 1.04 ± 0.023 | 1.04 ± 0.036 | 1.032 ± 0.0013
Cc1cc2c(cc1CC(=O)c1sccc1S(=O)(=O)[N-]c1onc(C)c1Cl)OCO2.[Na+] [Sitaxentan sodium] | 1.04 | 1.04 | 1.08 | 1.04 | 1.07 | 1.06
O=C(O)c1ccc2ccccc2c1O.OCc1cc(C(O)CNCCCCCCOCCCCc2ccccc2)ccc1O (configuration not stated) [Salmeterol Xinafoate] | 0.95 | 0.832 | 0.877 | 0.875 | 0.993 | 0.905
C=CC[N+]1(C2CC3C4CCC5CC(O)C(N6CCOCC6)CC5(C)C4CCC3(C)C2OC(C)=O)CCCC1.[Br-] (configuration not stated) [Rocuronium Bromide] | 1.03 | 1.02 | 1.1 | 1.03 | 1.05 | 1.07
OC[C@H](O)CN1CCN(c2ccccc2)CC1 [Levodropropizine] | 1.02 | 0.999 | 0.995 | 1.03 | 0.975 | 1.01
CC(C)NCC(O)c1ccc(O)c(O)c1.[Cl-].[H+] (configuration not stated) [Isoprenaline HCl] | 0.995 | 1.05 | 1.08 | 1.04 | 1.03 | 1.04
CC(C)Oc1ccc(-c2nc(-c3cccc4c3CC[C@@H]4NCCO)no2)cc1C#N [Ozanimod (RPC1063)] | 0.984 | 0.889 | 1 | 0.927 | 0.976 | 0.933
OCCN1CCN(CCCN2c3ccccc3Sc3ccc(Cl)cc32)CC1 [Perphenazine] | 1.01 | 1.04 | 1.03 | 1.03 | 1.04 | 0.983
COc1ccccc1Oc1c(NS(=O)(=O)c2ccc(C(C)(C)C)cc2)nc(-c2ncccn2)nc1OCCO [Bosentan] | 1.02 | 1.03 | 1.08 | 1.03 | 1.05 | 1.03
CN1[C@@H]2CC[C@H]1CC(OC(=O)C1C=Nc3ccccc31)C2.[Cl-].[H+] (some centres not stated) [Tropisetron] | 0.976 | 1.03 | 1.09 | 1.02 | 1.06 | 1.02
CC(C)NCC(O)c1ccc(NS(C)(=O)=O)cc1.[Cl-].[H+] (configuration not stated) [Sotalol] | 1.03 | 1.03 | 1.09 | 1.05 | 1.07 | 1.05
CCC1(c2c[nH]cn2)Cc2ccccc2C1 [Atipamezole] | 1.01 | 1.02 | 1.08 | 1.01 | 1.09 | 1.04
S=C=Nc1cccc(NC(=S)NCCCCNC(=S)Nc2cccc(N=C=S)c2)c1 [MRS 2578] | 1.02 | 1.02 | 1.08 | 1.03 | 1.07 | 1.02
CN(C)CCC=C1c2ccccc2CCc2ccccc21.Cl [Amitriptyline HCl] | 0.983 | 1.03 | 1.08 | 0.997 | 1.09 | 1.03
CNS(=O)(=O)Cc1ccc2[nH]cc(CCN(C)C)c2c1.O=C(O)CCC(=O)O [Sumatriptan Succinate] | 1.04 | 1.02 | 1.1 | 1.03 | 1.06 | 1.05
CCOC(=O)[C@H](CCc1ccccc1)N[C@H]1CCCN2CCC[C@@H](C(=O)O)N2C1=O.O [Cilazapril Monohydrate] | 1.04 | 1.03 | 1.1 | 1.04 | 1.07 | 1.04
COc1ccccc1N1CCN(CCN2C(=O)CC3(CCCC3)CC2=O)CC1.[Cl-].[Cl-].[H+].[H+] [BMY 7378] | 0.982 | 1.03 | 1.11 | 1.02 | 1.1 | 1.03
c1ccc(NCc2ccc(CNc3ccccn3)cc2)nc1 [WZ811] | 1.01 | 1.02 | 1.08 | 1.04 | 1.04 | 1.02
NCCCCCNCC12CC3CC(CC(C3)C1)C2.[Br-].[Br-].[H+].[H+] [IEM 1754 dihydrobroMide] | 1.03 | 1.04 | 1.07 | 1.03 | 1.04 | 1.01
CCCN[C@H]1CCc2nc(N)sc2C1 [Pramipexole] | 1.01 | 1.03 | 1.1 | 1.05 | 1.08 | 1.07
O=C(NCc1ccncc1)C12CC3CC(C1)CC(c1ccc(Cl)cc1)(C3)C2 | 1.02 | 1.04 | 1.08 | 1.01 | 1.04 | 0.985
Cc1nc(C#Cc2ccnc(Cl)c2)c(C)n1-c1ccc(OC(F)(F)F)cc1 | 1 | 1.03 | 1.09 | 1 | 0.968 | 0.969
C[C@@]12N[C@@H](Cc3ccccc31)c1ccccc12.O=C(O)/C=C/C(=O)O [(-)-MK 801 Maleate] | 1.03 | 1.03 | 1.08 | 1.04 | 1.06 | 1.03
c1nc2nc(Nc3ccc(N4CCOCC4)cc3)nc(NC3CCCCC3)c2[nH]1 [Reversine] | 0.662 | 0.689 | 0.65 | 0.643 | 0.677 | 0.648
CCN(C)C(=O)Oc1cccc(C(C)N(C)C)c1.O=C(O)C(O)C(O)C(=O)O (configuration not stated) [Rivastigmine Tartrate] | 1.02 | 1.03 | 1.07 | 1.04 | 1.06 | 1.06
CC(C)(Cc1ccc2ccccc2c1)NC[C@@H](O)COc1cccc(Cl)c1C#N [NPS-2143] | 0.833 | 0.874 | 0.815 | 0.817 | 0.794 | 0.808
